Consider 9 molecules from patent US20080026067A1, “Method for Increasing Specific Surface Area of Slightly Soluble Drug” (priority 2004, published 2008).

Holding throughout (type): physicochemical
Data set [1] can be described thus: Specific surface area of the powder, multipoint BET method. On the procedure: A specific surface area of a powder of the compound A obtained by the above-described methods and the following Examples can be measured by known method, for example, multipoint BET method.
A specific surface area of the compound A was adjusted to give the crystalline powders with different specific surface area by the following method. As well, the measurement of specific surface area was performed by multipoint BET method.

Data set [2] is described as follows: Dissolution test (Japanese Pharmacopoeia method 2, Paddle method). As to conditions: pH 6.8 McIlvaine buffer, 2.0% (w/v) sodium lauryl sulfate, 900 mL, 37°C, 50 rpm, 30 mg. As for the experimental part: In the present invention, the dissolution rate in the dissolution test, according to dissolution test method 2 (Paddle method) of general test in the Japanese Pharmacopoeia, is the value that the method is performed on condition that 50 rounds per minute in pH6.8 McIlvaine buffer solution including 2.0% (w/v) sodium lauryl sulfate. More detail, it includes the method described in the following method or the method pursuant thereof and so on.
The powder of compound A prepared in the above described Preparation Example 4 (specific surface area=12.51 m^2/g) and Preparation Example 6 (specific surface area=5.46 m^2/g) was sieved by 60 mesh sieve (250 μm) respectively and the sieved material was weighed out 30 mg and then poured into the test solution. The dissolution test was performed under the below described condition of the dissolution test. However, the compound A was suspended with about 2 mL test solution and then the compound A poured into the test solution. The eluate 10 mL obtained at each sampling time was filtrated with membrane filter having 0.45 μm pore diameter. The first filtrate 2 mL was removed and the rest of filtrate was as the solution of test material. The compound A prepared in Preparation Example 12 was precisely weighed out about 33.3 mg and it was dissolved by adding methanol to adjust 100 mL. Among this solution, 5 mL was weighed out and it was added by test solution to adjust 50 mL. It was made as the standard solution (0.0333 mg/mL) that […] of the compound A was dissolved. The absorbance of the solution of test material and standard solution in wavelength 278 nm was measured by the measurement of ultraviolet visible absorbance respectively and according to the below formula, the dissolution rate was found.
The Dissolution Test Condition:
• Apparatus: The Japanese Pharmacopoeia, general test, dissolution test method 2 (Paddle method), • Test solution; McIlvaine buffer solution containing of 2.0% (w/v) sodium lauryl sulfate, pH 6.8 • Test solution volume: 900 mL • Temperature: 37±0.5° C. • Rotation speed: 50 rotations per minute • Sampling volume of eluate: 10 mL • Sampling time: 5, 10, 15, 30, 45, 60 and 90 minutes. [formula] [formula] • W: The volume of compound A containing of standard solution (33.3 mg) • t: The number of sampling • C: The volume of compound A poured into the test solution (30 mg) • Ct: The concentration of compound A in the solution of test material at t times sampling • ΣCn: The sum of the concentration of compound A in the solution of test material from n=1 to t−1 • At: The absorbance of the solution of test material • As: The average of absorbance of the […] of repeated measurement at three times • V: The volume of the test solution (900 mL) • v: The sampling volume of the eluate (10 mL)

Data set [3] can be described thus: Accelerated test (storage stability: purity by HPLC, degree of moisture by Karl Fisher). As to conditions: for Degree of moisture (%) / Purity (%): crushing composition. As for the experimental part:
1 g of the powder of compound A was poured into the two-lay plastic bag and closed firmly with banding band. This was poured into miniature fiber dram and then this was preserved in the stability tester under the condition for 6 months, at 40° C., at 75% relative humidity. And then, the purity (quantitative value) and the degree of moisture (%) of the powder of compound A were measured. The measurement of the degree of moisture was performed by known method: the moisture vaporization method/Karl Fisher electrometrical titration method. The measurement of purity was performed by high performance liquid chromatography (HPLC).
About 0.04 mg/mL N,N-dimethylformamide/acetontirile (3/7) solution of reference material and measurement sample of compound A was prepared. In this case, the concentration of the solutions was precisely found. These solutions was set under the below test condition and the purity of measurement sample was calculated from the obtained area value of the peak.
• The detector: ultraviolet absorptiometer (measurement wavelength: 278 nm), • The column: YMC-Pack ODS-A-302 (inside diameter 4.6 mm, length 15 cm), • The mobile phase: acetonitrile/5 mmol/L sodium acetate buffer (It was prepared to pH 4.5 using acetate.)/2-propanol mixture (5/4/1), • The flow: The retention time of the compound A was prepared to be about 12 minutes (about 1.0 mL/min), • The column temperature: the constant temperature in the vicinity of 40° C. • The injection volume: 20 μL.

[4] abbreviates: 6 months at 40°C, 75% relative humidity.
The mark [5] stands for this setting: over 6 months at 40°C, 75% relative humidity.

Regarding `Cc1ccc(-c2nc(CCOc3cccc4c3CCC=C4CCC(=O)O)c(C)o2)cc1` [Adjustment Example 4, 3-(5-{2-[5-methyl-2-(4-methylphenyl)-1,3-oxazol-4-yl]ethoxy}-3,4-dihydronaphthalen-1-yl)propanoic acid], the specific surface area in data set [1] (powder as obtained) amounted to 12.51 m^2/g. In addition, the “Dissolution rate (%)” value in data set [2] (0 minutes) is 0.00%; in data set [2] (5 minutes), 65.46%; in data set [2] (10 minutes) it was 76.67%; in data set [2] (15 minutes) it was 82.17%; in data set [2] (30 minutes) it was 88.95%; in data set [2] (45 minutes) it was 92.15%. For the same molecule, the “Dissolution rate (%)” value in data set [2] (60 minutes) worked out at 94.10%; in data set [2] (90 minutes), 96.20%.

As to `Cc1ccc(-c2nc(CCOc3cccc4c3CCC=C4CCC(=O)O)c(C)o2)cc1` [Adjustment Example 4(1), 3-(5-{2-[5-methyl-2-(4-methylphenyl)-1,3-oxazol-4-yl]ethoxy}-3,4-dihydronaphthalen-1-yl)propanoic acid], the specific surface area in data set [1] (powder as obtained) was 6.7 m^2/g.

In turn, `Cc1ccc(-c2nc(CCOc3cccc4c3CCC=C4CCC(=O)O)c(C)o2)cc1` [Adjustment Example 4(2), 3-(5-{2-[5-methyl-2-(4-methylphenyl)-1,3-oxazol-4-yl]ethoxy}-3,4-dihydronaphthalen-1-yl)propanoic acid] showed a specific surface area in data set [1] (powder as obtained) of 17.8 m^2/g.

In turn, `Cc1ccc(-c2nc(CCOc3cccc4c3CCC=C4CCC(=O)O)c(C)o2)cc1` [Adjustment Example 1, 3-(5-{2-[5-methyl-2-(4-methylphenyl)-1,3-oxazol-4-yl]ethoxy}-3,4-dihydronaphthalen-1-yl)propanoic acid] returned a specific surface area in data set [1] (powder as obtained) of 42.24 m^2/g.

In the case of `Cc1ccc(-c2nc(CCOc3cccc4c3CCC=C4CCC(=O)O)c(C)o2)cc1` [Adjustment Example 5, 3-(5-{2-[5-methyl-2-(4-methylphenyl)-1,3-oxazol-4-yl]ethoxy}-3,4-dihydronaphthalen-1-yl)propanoic acid], the specific surface area in data set [1] (powder as obtained) is on record as 5.00 m^2/g.

Turning to `Cc1ccc(-c2nc(CCOc3cccc4c3CCC=C4CCC(=O)O)c(C)o2)cc1` [Adjustment Example 2, 3-(5-{2-[5-methyl-2-(4-methylphenyl)-1,3-oxazol-4-yl]ethoxy}-3,4-dihydronaphthalen-1-yl)propanoic acid], in data set [1] (powder as obtained), the specific surface area came out at 20.43 m^2/g.

In the case of `Cc1ccc(-c2nc(CCOc3cccc4c3CCC=C4CCC(=O)O)c(C)o2)cc1` [Adjustment Example 3, 3-(5-{2-[5-methyl-2-(4-methylphenyl)-1,3-oxazol-4-yl]ethoxy}-3,4-dihydronaphthalen-1-yl)propanoic acid], in data set [1] (crushing composition (jet mill crushed)), the specific surface area worked out at 20.6 m^2/g. The same molecule had a specific surface area in data set [1] (non-crushing composition) of 19.6 m^2/g. Moreover, in data set [3] (0 month), the “Degree of moisture (%)” value was found to be 0.3% and the “Purity (%)” value amounted to 95.4%. Moreover, in data set [3] (setting [4]), the “Degree of moisture (%)” value was 0.6% and the “Purity (%)” value was 94.4%. Besides, in data set [3] (setting [5]), the “change (increase) of degree of moisture” value was 0.3% and the decrease of purity was found to be 1.0%.

In turn, `Cc1ccc(-c2nc(CCOc3cccc4c3CCC=C4CCC(=O)O)c(C)o2)cc1` [Adjustment Example 6, 3-(5-{2-[5-methyl-2-(4-methylphenyl)-1,3-oxazol-4-yl]ethoxy}-3,4-dihydronaphthalen-1-yl)propanoic acid] yielded a specific surface area in data set [1] (powder as obtained) of 5.46 m^2/g. For the same molecule, the “Dissolution rate (%)” value in data set [2] (0 minutes) is recorded as 0.00%; in data set [2] (5 minutes) it was 32.3%; in data set [2] (10 minutes), 41.7%; in data set [2] (15 minutes), 48.0%; in data set [2] (30 minutes) it was 58.5%; in data set [2] (45 minutes), 64.3%. Further, in data set [2] (60 minutes), the “Dissolution rate (%)” value came to 68.0%.

For the molecule `Cc1ccc(-c2nc(CCOc3cccc4c3CCC=C4CCC(=O)O)c(C)o2)cc1` [Compound A, 3-(5-{2-[5-methyl-2-(4-methylphenyl)-1,3-oxazol-4-yl]ethoxy}-3,4-dihydronaphthalen-1-yl)propanoic acid], the specific surface area in data set [1] (powder as obtained) is 2.4 m^2/g.
